Source: ChEMBL document CHEMBL5154659, “A3 adenosine receptor agonists containing dopamine moieties for enhanced interspecies affinity” (Eur J Med Chem, 2022)
pEC50, pKi: −log10 of the molar value.

Tests used:
[1] = biological target: T1, Adenosine receptor A2a (Homo sapiens, UniProt P29274); assay: Binding affinity to human adenosine A2A receptor expressed in human HEK293 cell membrane at 10 uM by radioligand inhibition assay; assay type: cell membranes
[2] = biological target: T2, Adenosine receptor A1 (Homo sapiens) (UniProt P30542); assay: Binding affinity to human adenosine A1A receptor expressed in human HEK293 cell membrane at 10 uM by radioligand inhibition assay; assay type: cell membranes
T2 sequence (whole entry): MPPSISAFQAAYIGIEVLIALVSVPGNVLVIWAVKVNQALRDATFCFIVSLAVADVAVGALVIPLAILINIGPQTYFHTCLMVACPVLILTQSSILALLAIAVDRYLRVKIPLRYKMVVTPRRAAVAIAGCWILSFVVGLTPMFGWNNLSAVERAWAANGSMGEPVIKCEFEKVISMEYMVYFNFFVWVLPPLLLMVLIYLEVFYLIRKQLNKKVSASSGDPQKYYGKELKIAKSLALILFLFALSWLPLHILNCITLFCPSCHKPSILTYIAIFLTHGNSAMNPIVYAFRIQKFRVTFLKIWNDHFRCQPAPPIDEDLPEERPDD

[3] = biological target: T3, Adenosine receptor A3 (Homo sapiens, UniProt P0DMS8); assay: Displacement of [125I] N6-(4-amino-3-iodobenzyl)adenosine-5'-N-methyluronamide from human A3A receptor stably expressed in HEK293 cell membrane by radioligand inhibition assay; assay type: cell membranes
T3 sequence (P0DMS8 whole entry): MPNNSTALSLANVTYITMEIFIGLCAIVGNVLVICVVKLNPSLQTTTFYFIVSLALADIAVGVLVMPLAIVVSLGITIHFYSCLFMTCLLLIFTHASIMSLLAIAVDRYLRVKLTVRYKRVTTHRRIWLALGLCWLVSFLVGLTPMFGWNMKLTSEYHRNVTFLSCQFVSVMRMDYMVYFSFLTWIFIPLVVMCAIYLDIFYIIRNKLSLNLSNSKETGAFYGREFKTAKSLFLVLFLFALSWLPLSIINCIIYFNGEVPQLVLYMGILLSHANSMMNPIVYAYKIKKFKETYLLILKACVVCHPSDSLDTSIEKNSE

[4] = biological target: T4, Adenosine receptor A1 (Mus musculus, UniProt Q60612); assay: Displacement of [3H] N6-R-phenylisopropyladenosine from mouse A1A receptor stably expressed in HEK293 cell membrane by radioligand inhibition assay; assay type: cell membranes
T4 sequence (Q60612 whole entry): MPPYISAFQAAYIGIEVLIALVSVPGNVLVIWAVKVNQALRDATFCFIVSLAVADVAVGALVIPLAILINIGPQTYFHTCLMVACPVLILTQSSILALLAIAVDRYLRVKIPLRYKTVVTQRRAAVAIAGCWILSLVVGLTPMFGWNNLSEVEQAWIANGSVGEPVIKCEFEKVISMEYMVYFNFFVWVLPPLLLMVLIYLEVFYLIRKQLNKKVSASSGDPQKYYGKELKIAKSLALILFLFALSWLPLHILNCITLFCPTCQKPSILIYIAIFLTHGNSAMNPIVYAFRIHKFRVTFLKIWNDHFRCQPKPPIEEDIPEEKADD

[5] = biological target: T1, Adenosine receptor A2a; assay: Displacement of [3H]-2-p-2-(carboxyethyl)phenyl-ethylamino-5'-N-ethylcarboxamidoadenosine from human A2A receptor stably expressed in HEK293 cell membrane by radioligand inhibition assay; assay type: cell membranes
[6] = biological target: T5, Adenosine receptor A3 (Mus musculus, UniProt Q61618); assay: Displacement of [125I] N6-4-amino-3-iodobenzyl adenosine 5-N-methyluronamide from mouse A3A receptor stably expressed in HEK293 cell membrane by radioligand inhibition assay; assay type: cell membranes
T5 sequence (Q61618 whole entry): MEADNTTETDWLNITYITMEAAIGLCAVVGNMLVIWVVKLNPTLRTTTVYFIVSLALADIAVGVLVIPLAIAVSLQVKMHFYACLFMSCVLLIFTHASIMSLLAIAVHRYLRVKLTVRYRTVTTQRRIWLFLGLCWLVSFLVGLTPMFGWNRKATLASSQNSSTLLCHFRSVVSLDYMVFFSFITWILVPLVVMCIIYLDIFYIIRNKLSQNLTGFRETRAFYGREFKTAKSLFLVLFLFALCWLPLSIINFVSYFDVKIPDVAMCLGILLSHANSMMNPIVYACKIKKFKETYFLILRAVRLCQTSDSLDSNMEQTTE

[7] = biological target: T6, Adenosine receptor A1 (Mus musculus) (UniProt Q60612); assay: Binding affinity to mouse adenosine A1A receptor expressed in human HEK293 cell membrane by radioligand inhibition assay; assay type: cell membranes; set-up: concentration or dose not given beside the values; settings: concentration not given here
T6 sequence (whole entry): T4 sequence (Q60612 whole entry)

[8] = biological target: T3, Adenosine receptor A3; assay: Agonist activity at human adenosine A3A receptor stably expressed in HEK293 cells assessed as beta arrestin 2 recruitment potency by luciferase based NanoBiT assay; assay type: functional, cell-based
[9] = biological target: T3, Adenosine receptor A3; assay: Agonist activity at human adenosine A3A receptor stably expressed in HEK293 cells assessed as mini G-alpha recruitment potency by luciferase based NanoBiT assay; assay type: functional, cell-based

T1 sequence (P29274 whole entry): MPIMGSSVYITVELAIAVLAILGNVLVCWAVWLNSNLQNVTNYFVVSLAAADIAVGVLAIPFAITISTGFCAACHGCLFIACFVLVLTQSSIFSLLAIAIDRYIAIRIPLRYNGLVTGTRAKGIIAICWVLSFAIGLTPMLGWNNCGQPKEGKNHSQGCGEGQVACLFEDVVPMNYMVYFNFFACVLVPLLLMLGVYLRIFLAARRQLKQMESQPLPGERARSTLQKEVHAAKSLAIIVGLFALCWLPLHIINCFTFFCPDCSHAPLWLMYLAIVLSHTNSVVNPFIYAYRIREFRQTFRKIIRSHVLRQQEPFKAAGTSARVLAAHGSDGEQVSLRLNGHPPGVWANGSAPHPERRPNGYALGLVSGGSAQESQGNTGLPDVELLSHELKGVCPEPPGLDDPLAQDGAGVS

SMILES	inhibition [1] [%]	inhibition [2] [%]	pKi [3]	pKi [4]	pKi [5]	pKi [6]	inhibition [7] [%]	pEC50 [8]	pEC50 [9]
CNC(=O)[C@@]12C[C@@H]1[C@@H](n1cnc3c(NCCc4ccccc4)nc(C#Cc4ccccc4Cl)nc31)[C@H](O)[C@@H]2O	30	27	9.24						
CNC(=O)[C@@]12C[C@@H]1[C@@H](n1cnc3c(NCCc4ccc(OC)c(O)c4)nc(OCC4CC4)nc31)[C@H](O)[C@@H]2O				6.82	5.33	7.92			
CNC(=O)[C@@]12C[C@@H]1[C@@H](n1cnc3c(NCCc4ccc(O)c(OC)c4)nc(C#Cc4ccc(F)c(F)c4)nc31)[C@H](O)[C@@H]2O	9	11	8.30	5.24		8.48			
CNC(=O)[C@@]12C[C@@H]1[C@@H](n1cnc3c(NCCc4ccc(O)c(OC)c4)nc(C#Cc4ccsc4)nc31)[C@H](O)[C@@H]2O	35	30	8.48			8.68	61		
CCOC(=O)[C@@]12C[C@@H]1[C@@H](n1cnc3c(NCCc4ccc(O)c(OC)c4)nc(C#Cc4ccc(Cl)s4)nc31)[C@H](O)[C@@H]2O	33	0	7.43				57		
CCOC(=O)[C@@]12C[C@@H]1[C@@H](n1cnc3c(NCCc4ccccc4)nc(C#Cc4ccc(Cl)s4)nc31)[C@H](O)[C@@H]2O	24		7.22						
CNC(=O)[C@@]12C[C@@H]1[C@@H](n1cnc3c(NCCc4ccc(O)c(OC)c4)nc(C#Cc4ccc(F)s4)nc31)[C@H](O)[C@@H]2O	32	2	8.48			8.84	48	7.60	7.63
CNC(=O)[C@@]12C[C@@H]1[C@@H](n1cnc3c(NCCc4ccc(O)c(O)c4)nc(C#Cc4ccc(Br)s4)nc31)[C@H](O)[C@@H]2O	6	31	7.20			8.60			
CCOC(=O)[C@@]12C[C@@H]1[C@@H](n1cnc3c(NCCc4ccc(OC)c(O)c4)nc(C#Cc4ccc(Cl)s4)nc31)[C@H](O)[C@@H]2O	25	7	7.48			6.98	56		
CNC(=O)[C@@]12C[C@@H]1[C@@H](n1cnc3c(NCCc4ccc(O)c(OC)c4)nc(C#Cc4ccc(Br)s4)nc31)[C@H](O)[C@@H]2O	43		8.47			8.88			
CNC(=O)[C@@]12C[C@@H]1[C@@H](n1cnc3c(NCCc4ccc(OC)c(O)c4)nc(OCCC(C)C)nc31)[C@H](O)[C@@H]2O				6.32	5.31	8.30			
CNC(=O)[C@@]12C[C@@H]1[C@@H](n1cnc3c(NCCc4ccc(O)c(OC)c4)nc(C#Cc4ccc(Cl)s4)nc31)[C@H](O)[C@@H]2O	31		8.28	8.43		8.50		7.40	7.36
CNC(=O)[C@@]12C[C@@H]1[C@@H](n1cnc3c(NCCc4ccc(OC)c(OC)c4)nc(I)nc31)[C@H](O)[C@@H]2O				6.07		8.27			
CNC(=O)[C@@]12C[C@@H]1[C@@H](n1cnc3c(NCCc4ccccc4)nc(C#Cc4ccc(Cl)s4)nc31)[C@H](O)[C@@H]2O	49	4	8.47			8.72	42	7.19	7.19
CNC(=O)[C@@]12C[C@@H]1[C@@H](n1cnc3c(NCCc4ccc(O)c(OC)c4)nc(C#Cc4ccccc4)nc31)[C@H](O)[C@@H]2O	28	2	9.25	5.29		8.81			
CNC(=O)[C@@]12C[C@@H]1[C@@H](n1cnc3c(NCCc4ccc(OC)c(O)c4)nc(OCCCC4CCCCC4)nc31)[C@H](O)[C@@H]2O						8.19			
CNC(=O)[C@@]12C[C@@H]1[C@@H](n1cnc3c(NCCc4ccc(OC)c(O)c4)nc(OC)nc31)[C@H](O)[C@@H]2O		59	8.41		4.99	8.27		7.30	7.41
COc1cc(CCNc2nc(OCC(C)C)nc3c2ncn3[C@H]2[C@H](O)[C@H](O)[C@@H]3C[C@@H]32)ccc1O		4	7.88		5.30				
CNC(=O)[C@@]12C[C@@H]1[C@@H](n1cnc3c(NCCc4ccc(OC)c(O)c4)nc(C#Cc4ccc(Cl)s4)nc31)[C@H](O)[C@@H]2O	34	0	8.08			8.77	44		
CNC(=O)[C@@]12C[C@@H]1[C@@H](n1cnc3c(NCCc4ccc(OC)c(OC)c4)nc(C#Cc4ccc(Br)s4)nc31)[C@H](O)[C@@H]2O	36		8.10						
O[C@@H]1[C@H](O)[C@@H]2C[C@@H]2[C@H]1n1cnc2c(NCCc3ccccc3)nc(I)nc21			7.64		5.23				
CNC(=O)[C@@]12C[C@@H]1[C@@H](n1cnc3c(NCCc4ccc(O)c(O)c4)nc(C#Cc4ccc(Cl)s4)nc31)[C@H](O)[C@@H]2O	8	25	7.68			9.04			
CNC(=O)[C@@]12C[C@@H]1[C@@H](n1cnc3c(NCCc4ccc(O)c(OC)c4)nc(I)nc31)[C@H](O)[C@@H]2O	43	46	8.20	6.32		8.65			
CNC(=O)[C@@]12C[C@@H]1[C@@H](n1cnc3c(NCCc4ccc(O)c(OC)c4)nc(C#Cc4cccs4)nc31)[C@H](O)[C@@H]2O	37	12	8.48			8.90	47		
CNC(=O)[C@@]12C[C@@H]1[C@@H](n1cnc3c(NCc4ccc(O)c(OC)c4)nc(C#Cc4ccc(Cl)s4)nc31)[C@H](O)[C@@H]2O				5.63	5.09				
CNC(=O)[C@@]12C[C@@H]1[C@@H](n1cnc3c(NCCc4ccc(O)c(OC)c4)nc(C#Cc4ccco4)nc31)[C@H](O)[C@@H]2O	32	9	8.49			8.81	40		
